Test results: the NIST ThermoML archive (doi:10.1016/j.jct.2018.02.018)
Numbers after ± are expanded uncertainties.

Experiments:
[1] = refractive index (Na D-line) (dimensionless); settings: 100 kPa, Liquid, Standard Abbe refractometry
[2] = 100 kPa, Liquid; for speed of sound: Frequency=3 MHz, Single path-length method; for mass density: Vibrating tube method
[3] = refractive index (Na D-line) (dimensionless); xn = mol fraction of the nth substance listed; settings: 100 kPa, Liquid, Standard Abbe refractometry, x1 = 1
[4] = xn = mol fraction of the nth substance listed; settings: 100 kPa, Liquid, x1 = 1; for speed of sound: Frequency=3 MHz, Single path-length method; for mass density: Vibrating tube method

| SMILES | refractive index ([3]; 293.15 K) | refractive index ([3]; 303.15 K) | refractive index ([3]; 313.15 K) | refractive index ([3]; 323.15 K) | speed of sound ([4]; 293.15 K) [m/s] | mass density ([4]; 293.15 K) [kg/m3] | speed of sound ([4]; 303.15 K) [m/s] | mass density ([4]; 303.15 K) [kg/m3] | speed of sound ([4]; 313.15 K) [m/s] | mass density ([4]; 313.15 K) [kg/m3] | speed of sound ([4]; 323.15 K) [m/s] | mass density ([4]; 323.15 K) [kg/m3] | further results |
| --- | --- | --- | --- | --- | --- | --- | --- | --- | --- | --- | --- | --- | --- |
| C[S+](C)[O-] [dimethyl sulfoxide] | – | – | – | – | – | – | – | – | – | – | – | – | refractive index ([1]; 293.15 K): 1.479 ± 0.006; refractive index ([1]; 298.15 K): 1.477 ± 0.006; refractive index ([1]; 303.15 K): 1.475 ± 0.006; refractive index ([1]; 313.15 K): 1.47 ± 0.006; refractive index ([1]; 323.15 K): 1.466 ± 0.006; speed of sound ([2]; 293.15 K): 1503.9 ± 1.5 m/s; mass density ([2]; 293.15 K): 1100 ± 4 kg/m3; speed of sound ([2]; 298.15 K): 1486.8 ± 1.5 m/s; mass density ([2]; 298.15 K): 1095 ± 4 kg/m3; speed of sound ([2]; 303.15 K): 1469.9 ± 1.5 m/s; mass density ([2]; 303.15 K): 1090 ± 4 kg/m3; speed of sound ([2]; 313.15 K): 1436.3 ± 1.5 m/s; mass density ([2]; 313.15 K): 1080 ± 4 kg/m3; speed of sound ([2]; 323.15 K): 1403 ± 1.5 m/s; mass density ([2]; 323.15 K): 1070 ± 4 kg/m3 |
| C[S+](C)[O-] [dimethyl sulfoxide] + CN(C)CCCO | 1.479 ± 0.006 | 1.475 ± 0.006 | 1.47 ± 0.006 | 1.466 ± 0.006 | 1503.9 ± 1.5 | 1100 ± 4 | 1469.9 ± 1.5 | 1090 ± 4 | 1436.3 ± 1.5 | 1080 ± 4 | 1403 ± 1.5 | 1070 ± 4 | – |
| C[S+](C)[O-] [dimethyl sulfoxide] + CN(C)CCOCCO | 1.479 ± 0.006 | 1.475 ± 0.006 | 1.47 ± 0.006 | 1.466 ± 0.006 | 1503.9 ± 1.5 | 1100 ± 4 | 1469.9 ± 1.5 | 1090 ± 4 | 1436.3 ± 1.5 | 1080 ± 4 | 1403 ± 1.5 | 1070 ± 4 | – |
| C[S+](C)[O-] [dimethyl sulfoxide] + NCCO | 1.479 ± 0.006 | 1.475 ± 0.006 | 1.47 ± 0.006 | 1.466 ± 0.006 | 1503.9 ± 1.5 | 1100 ± 4 | 1469.9 ± 1.5 | 1090 ± 4 | 1436.3 ± 1.5 | 1080 ± 4 | 1403 ± 1.5 | 1070 ± 4 | – |
| C[S+](C)[O-] [dimethyl sulfoxide] + NCc1ccccc1 | 1.479 ± 0.006 | 1.475 ± 0.006 | 1.47 ± 0.006 | 1.466 ± 0.006 | 1503.9 ± 1.5 | 1100 ± 4 | 1469.9 ± 1.5 | 1090 ± 4 | 1436.3 ± 1.5 | 1080 ± 4 | 1403 ± 1.5 | 1070 ± 4 | – |
